Read-outs that look alike come from different tables or passages of the source.
What was measured:
Type in all cases: biochemical
[1] = molecular target: PLK2 (Homo sapiens, UniProt Q9NYY3); assay: PLK TR-FRET peptide assay, PLK2; settings: for IC50: PLK TR-FRET peptide assay, read-out: Plk2 IC50
[2] = molecular target: PLK1 (Homo sapiens, UniProt P53350); assay: PLK TR-FRET peptide assay, PLK1
[3] = molecular target: PLK3 (Homo sapiens, UniProt Q9H4B4); assay: PLK TR-FRET peptide assay, PLK3
[4] = GST-PLK3, 15 min reaction, read-out: Plk3 IC50

Sequence of PLK1 (P53350 whole entry): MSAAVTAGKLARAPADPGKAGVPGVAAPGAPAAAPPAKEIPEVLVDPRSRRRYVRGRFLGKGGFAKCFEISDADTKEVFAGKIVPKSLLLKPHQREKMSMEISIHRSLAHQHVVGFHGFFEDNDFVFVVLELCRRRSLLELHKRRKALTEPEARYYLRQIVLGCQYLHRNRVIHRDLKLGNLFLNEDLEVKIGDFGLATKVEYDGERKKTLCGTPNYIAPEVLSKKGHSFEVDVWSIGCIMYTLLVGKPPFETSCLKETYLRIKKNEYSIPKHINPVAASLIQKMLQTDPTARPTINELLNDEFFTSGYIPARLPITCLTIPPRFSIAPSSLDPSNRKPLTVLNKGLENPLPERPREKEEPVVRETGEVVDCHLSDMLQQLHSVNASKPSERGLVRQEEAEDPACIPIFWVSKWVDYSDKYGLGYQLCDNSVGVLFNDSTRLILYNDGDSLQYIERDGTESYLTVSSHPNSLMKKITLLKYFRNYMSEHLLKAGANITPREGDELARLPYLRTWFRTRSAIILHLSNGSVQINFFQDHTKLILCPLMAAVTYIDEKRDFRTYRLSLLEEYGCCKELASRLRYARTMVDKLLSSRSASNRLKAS
Sequence of PLK3 (Q9H4B4 whole entry): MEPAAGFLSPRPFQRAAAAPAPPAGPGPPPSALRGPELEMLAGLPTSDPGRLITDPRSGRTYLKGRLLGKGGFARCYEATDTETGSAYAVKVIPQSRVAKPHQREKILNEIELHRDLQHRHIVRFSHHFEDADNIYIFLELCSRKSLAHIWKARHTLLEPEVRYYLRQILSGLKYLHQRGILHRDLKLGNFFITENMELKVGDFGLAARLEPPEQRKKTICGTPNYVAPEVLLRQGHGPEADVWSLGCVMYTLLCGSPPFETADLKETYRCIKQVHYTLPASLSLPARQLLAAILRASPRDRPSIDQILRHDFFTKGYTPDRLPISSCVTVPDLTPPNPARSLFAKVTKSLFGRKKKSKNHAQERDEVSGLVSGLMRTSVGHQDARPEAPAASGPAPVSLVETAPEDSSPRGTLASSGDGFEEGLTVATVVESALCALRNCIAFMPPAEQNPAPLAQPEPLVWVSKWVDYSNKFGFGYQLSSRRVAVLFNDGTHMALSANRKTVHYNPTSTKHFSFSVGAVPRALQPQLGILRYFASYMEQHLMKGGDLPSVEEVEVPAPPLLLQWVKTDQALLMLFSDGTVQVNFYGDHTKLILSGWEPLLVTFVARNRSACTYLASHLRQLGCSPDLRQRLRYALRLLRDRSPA
Sequence of PLK2 (Q9NYY3 whole entry): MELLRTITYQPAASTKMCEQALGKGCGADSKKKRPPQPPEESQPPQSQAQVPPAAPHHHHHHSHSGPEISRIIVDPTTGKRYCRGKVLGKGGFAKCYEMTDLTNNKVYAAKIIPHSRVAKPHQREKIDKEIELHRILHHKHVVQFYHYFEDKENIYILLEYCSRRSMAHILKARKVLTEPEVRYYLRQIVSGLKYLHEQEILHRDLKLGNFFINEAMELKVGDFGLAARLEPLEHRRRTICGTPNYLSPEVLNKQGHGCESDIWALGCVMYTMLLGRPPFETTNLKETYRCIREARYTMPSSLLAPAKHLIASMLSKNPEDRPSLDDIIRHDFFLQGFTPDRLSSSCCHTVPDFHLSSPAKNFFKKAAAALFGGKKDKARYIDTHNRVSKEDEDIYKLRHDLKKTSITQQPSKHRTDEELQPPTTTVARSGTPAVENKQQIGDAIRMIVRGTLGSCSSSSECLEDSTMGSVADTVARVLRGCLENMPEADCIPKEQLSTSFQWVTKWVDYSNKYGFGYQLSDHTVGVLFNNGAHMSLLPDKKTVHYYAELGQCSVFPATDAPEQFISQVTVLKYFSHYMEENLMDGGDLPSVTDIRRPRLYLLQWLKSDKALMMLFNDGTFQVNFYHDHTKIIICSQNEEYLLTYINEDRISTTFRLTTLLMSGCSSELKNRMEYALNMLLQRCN

| SMILES | IC50 ([1]; GST-PLK2, 60 min reaction) [µM] | IC50 ([2]; GST-PLK1, 60 min reaction) [µM] | IC50 [3, 4] [µM] | IC50 ([1]; GST-PLK2) [µM] | relative PLK2 activity of the enantiomers ([1]; compared with the opposite enantiomer) | IC50 ([2]; GST-PLK1) [µM] | IC50 ([3]; GST-PLK3, read-out: Plk3 IC50) [µM] |
| --- | --- | --- | --- | --- | --- | --- | --- |
| CC[C@@H]1C(=O)N(C)c2cnc(-c3ccccc3C(F)(F)F)nc2N1C1CCC1 [Example 98, (R)-8-cyclobutyl-7-ethyl-5-methyl-2-(2-(trifluoromethyl)phenyl)-7,8-dihydropteridin-6(5H)-one] | 1 to 10 | 10 to 50 | > 50 |  |  |  |  |
| CC[C@@H]1C(=O)N(C)c2cnc(-n3ccnc3-c3ccc(F)cc3)nc2N1C(C)C [Example 212, (R)-7-ethyl-2-(2-(4-fluorophenyl)-1H-imidazol-1-yl)-8-isopropyl-5-methyl-7,8-dihydropteridin-6(5H)-one] | < 1 | 1 to 10 | 1 to 10 |  |  |  |  |
| CC[C@@H]1C(=O)N(C)c2cnc(-c3ccncc3CNS(C)(=O)=O)nc2N1C1CCCC1 [Example 124, (R)—N-((4-(8-cyclopentyl-7-ethyl-5-methyl-6-oxo-5,6,7,8-tetrahydropteridin-2-yl)pyridin-3-yl)methyl)methanesulfonamide] | 1 to 10 | 1 to 10 | 10 to 50 |  |  |  |  |
| CC[C@@H]1C(=O)N(C)c2cnc(-c3nccnc3-c3ccc(C(F)(F)F)cc3)nc2N1C(C)C [Example 175, (R)-7-ethyl-8-isopropyl-5-methyl-2-(3-(4-(trifluoromethyl)phenyl)pyrazin-2-yl)-7,8-dihydropteridin-6(5H)-one] | 1 to 10 | 1 to 10 | 10 to 50 |  |  |  |  |
| CC[C@@H]1C(=O)N(C)c2cnc(-n3ccnc3-c3cccc(Cl)c3)nc2N1C1CCOC1 (stereo partly drawn) [Example 211, (7R)-2-(2-(3-chlorophenyl)-1H-imidazol-1-yl)-7-ethyl-5-methyl-8-(tetrahydrofuran-3-yl)-7,8-dihydropteridin-6(5H)-one] | < 1 | < 1 | 1 to 10 |  |  |  |  |
| CC[C@@H]1C(=O)N(C)c2cnc(-c3ccncc3NC(=O)CC(C)(C)C)nc2N1C(C)C [Example 103, (R)—N-(4-(7-ethyl-8-isopropyl-5-methyl-6-oxo-5,6,7,8-tetrahydropteridin-2-yl)pyridin-3-yl)-3,3-dimethylbutanamide] | 10 to 50 | 10 to 50 | 10 to 50 |  |  |  |  |
| CC[C@@H]1C(=O)N(C)c2cnc(-n3ccnc3-c3ccccc3)nc2N1C1CCC1 [Example 47, (R)-8-cyclobutyl-7-ethyl-5-methyl-2-(2-phenyl-1H-imidazol-1-yl)-7,8-dihydropteridin-6(5H)-one] | < 1 | < 1 | 1 to 10 |  |  |  |  |
| CC[C@@H]1C(=O)N(C)c2cnc(-n3ccnc3-n3cccn3)nc2N1C1CCCC1 [Example 89, (R)-2-(2-(1H-pyrazol-1-yl)-1H-imidazol-1-yl)-8-cyclopentyl-7-ethyl-5-methyl-7,8-dihydropteridin-6(5H)-one] | < 1 | < 1 | < 1 |  |  |  |  |
| CC[C@@H]1C(=O)N(C)c2cnc(-n3ccnc3-c3cccc(F)c3)nc2N1C1CC(F)(F)C1 [Example 194, (R)-8-(3,3-difluorocyclobutyl)-7-ethyl-2-(2-(3-fluorophenyl)-1H-imidazol-1-yl)-5-methyl-7,8-dihydropteridin-6(5H)-one] | < 1 | < 1 | 10 to 50 |  |  |  |  |
| CC[C@@H]1C(=O)N(C)c2cnc(-c3cccc(C(=O)N(C)C)c3)nc2N1C1CCCC1 [Example 57, (R)-3-(8-cyclopentyl-7-ethyl-5-methyl-6-oxo-5,6,7,8-tetrahydropteridin-2-yl)-N,N-dimethylbenzamide] | 1 to 10 | 1 to 10 | > 50 |  |  |  |  |
| CC[C@@H]1C(=O)N(C)c2cnc(-c3cnoc3-c3nccs3)nc2N1C(C)C [Example 187, (R)-7-ethyl-8-isopropyl-5-methyl-2-(5-(thiazol-2-yl)isoxazol-4-yl)-7,8-dihydropteridin-6(5H)-one] | 10 to 50 | 10 to 50 | 10 to 50 |  |  |  |  |
| [2H]C([2H])([2H])N1C(=O)[C@H](C([2H])([2H])C([2H])([2H])[2H])N(C([2H])(C([2H])([2H])[2H])C([2H])([2H])[2H])c2nc(-n3ccnc3-c3cc(F)cc(F)c3)ncc21 [Example 178, (S)-2-(2-(3,5-difluorophenyl)-1H-imidazol-1-yl)-7-perdeuteroethyl-8-perdeuteroisopropyl-5-trideuteromethyl-7,8-dihydropteridin-6(5H)-one] | 10 to 50 | > 50 | > 50 |  |  |  |  |
| CC[C@@H]1C(=O)N(C)c2cnc(-c3cnc4[nH]ccc4c3)nc2N1C1CCCC1 [Example 32, (R)-8-cyclopentyl-7-ethyl-5-methyl-2-(1H-pyrrolo[2,3-b]pyridin-5-yl)-7,8-dihydropteridin-6(5H)-one] | < 1 | < 1 | 1 to 10 |  |  |  |  |
| CC[C@@H]1C(=O)N(C)c2cnc(-c3ccnc(NC)c3)nc2N1C1CCCC1 [Example 20, (R)-8-cyclopentyl-7-ethyl-5-methyl-2-(2-(methylamino)pyridin-4-yl)-7,8-dihydropteridin-6(5H)-one] | < 1 | < 1 | 10 to 50 |  |  |  |  |
| CC[C@@H]1C(=O)N(C)c2cnc(-c3ccncc3CNC(=O)OC(C)(C)C)nc2N1C1CCCC1 [Example 106, (R)-tert-butyl (4-(8-cyclopentyl-7-ethyl-5-methyl-6-oxo-5,6,7,8-tetrahydropteridin-2-yl)pyridin-3-yl)methylcarbamate] |  | 10 to 50 | > 50 |  |  |  |  |

The next lines start with the values.

| IC50 ([1]; GST-PLK2, 60 min reaction) [µM] | IC50 ([2]; GST-PLK1, 60 min reaction) [µM] | IC50 [3, 4] [µM] | IC50 ([1]; GST-PLK2) [µM] | relative PLK2 activity of the enantiomers ([1]; compared with the opposite enantiomer) | IC50 ([2]; GST-PLK1) [µM] | IC50 ([3]; GST-PLK3, read-out: Plk3 IC50) [µM] | SMILES |
| --- | --- | --- | --- | --- | --- | --- | --- |
| 1 to 10 | 1 to 10 | 10 to 50 |  |  |  |  | CC[C@@H]1C(=O)N(C)c2cnc(-n3ccnc3)nc2N1C1CCOCC1 [Example 295, (R)-7-ethyl-2-(1H-imidazol-1-yl)-5-methyl-8-(tetrahydro-2H-pyran-4-yl)-7,8-dihydropteridin-6(5H)-one] |
| 10 to 50 | 10 to 50 | 10 to 50 |  |  |  |  | CN1C(=O)C2(CC(F)(F)F)CCCN2c2nc(-n3ccnc3)ncc21 (stereo not drawn) [Example 329, 2-(1H-imidazol-1-yl)-5-methyl-6a-(2,2,2-trifluoroethyl)-6a,7,8,9-tetrahydropyrrolo[2,1-h]pteridin-6(5H)-one] |
| 1 to 10 | 1 to 10 | 1 to 10 |  |  |  |  | CC[C@@H]1C(=O)N(C)c2cnc(-n3ncnc3-c3cccc4ncccc34)nc2N1C1CCC1 [Example 215, (R)-8-cyclobutyl-7-ethyl-5-methyl-2-(5-(quinolin-5-yl)-1H-1,2,4-triazol-1-yl)-7,8-dihydropteridin-6(5H)-one] |
| < 1 | 10 to 50 | 10 to 50 |  |  |  |  | CC[C@@]12CCCN1c1nc(-n3ccnc3-c3cccc(-c4cccnc4)c3)ncc1N(C)C2=O [Example 272, (S)-6a-ethyl-5-methyl-2-(2-(3-(pyridin-3-yl)phenyl)-1H-imidazol-1-yl)-6a,7,8,9-tetrahydropyrrolo[2,1-h]pteridin-6(5H)-one] |
| > 50 | > 50 | > 50 |  |  |  |  | CC[C@]12CCCCN1c1nc(-n3ccnc3)ncc1N(C)C2=O [Example 287, (R)-6a-ethyl-2-(1H-imidazol-1-yl)-5-methyl-7,8,9,10-tetrahydro-5H-pyrido[2,1-h]pteridin-6(6aH)-one] |
| < 1 | > 50 | > 50 |  |  |  |  | CC[C@@H]1C(=O)N(C)c2cnc(-c3sc(Br)nc3-c3ccc(F)cc3)nc2N1C(C)C [Example 347, (R)-2-(2-bromo-4-(4-fluorophenyl)thiazol-5-yl)-7-ethyl-8-isopropyl-5-methyl-7,8-dihydropteridin-6(5H)-one] |
| < 1 | 1 to 10 | < 1 |  |  |  |  | CC[C@@H]1C(=O)N(C)c2cnc(-c3sc(C#N)nc3-c3ccc(F)cc3)nc2N1C(C)C [Example 354, (R)-5-(7-ethyl-8-isopropyl-5-methyl-6-oxo-5,6,7,8-tetrahydropteridin-2-yl)-4-(4-fluorophenyl)thiazole-2-carbonitrile] |
| > 50 | > 50 | > 50 |  |  |  |  | CC[C@@]12CCC(=O)N1c1nc(-n3ccnc3)ncc1N(C)C2=O [Example 311, (S)-6a-ethyl-2-(1H-imidazol-1-yl)-5-methyl-7,8-dihydropyrrolo[2,1-h]pteridine-6,9(5H,6aH)-dione] |
|  |  |  | < 1 | more active compound | < 1 | < 1 | CC[C@@H]1C(=O)N(C)c2cnc(-c3cnsc3-c3ccc(F)cc3)nc2N1c1cccc(C#N)c1 [Example 391, (R)-3-(7-ethyl-2-(5-(4-fluorophenyl)isothiazol-4-yl)-5-methyl-6-oxo-6,7-dihydropteridin-8(5H)-yl)benzonitrile] |
| 10 to 50 | 1 to 10 | > 50 |  |  |  |  | CC[C@@H]1C(=O)N(C)c2cnc(N3CCNC(=O)C3)nc2N1C1CCCC1 [Example 214, (R)-8-cyclopentyl-7-ethyl-5-methyl-2-(3-oxopiperazin-1-yl)-7,8-dihydropteridin-6(5H)-one] |
|  |  |  | 1 to 10 |  | 1 to 10 | 10 to 50 | CC[C@@H]1C(=O)N(C)c2cnc(-n3cnc(C(=O)N(C)C)c3)nc2N1C1CCCC1 [Example 384, (R)-1-(8-cyclopentyl-7-ethyl-5-methyl-6-oxo-5,6,7,8-tetrahydropteridin-2-yl)-N,N-dimethyl-1H-imidazole-4-carboxamide] |
| 1 to 10 | 1 to 10 | > 50 |  |  |  |  | CC[C@@H]1C(=O)N(C)c2cnc(N3CCN(c4cnccn4)CC3)nc2N1C1CCCC1 [Example 223, (R)-8-cyclopentyl-7-ethyl-5-methyl-2-(4-(pyrazin-2-yl)piperazin-1-yl)-7,8-dihydropteridin-6(5H)-one] |
| < 1 | 1 to 10 | 10 to 50 |  |  |  |  | CCC12CCCCN1c1nc(-n3ccnc3-c3ccc(F)c(F)c3)ncc1N(C)C2=O (racemic) [Example 240, (+/−) 2-(2-(3,4-difluorophenyl)-1H-imidazol-1-yl)-6a-ethyl-5-methyl-7,8,9,10-tetrahydro-5H-pyrido[2,1-h]pteridin-6(6aH)-one] |

— patent publication US8541418B2, “Inhibitors of polo-like kinase” (Elan Pharmaceutical, Inc., priority 2009, dated 2013)
